# Measured values from US20100303934A1, “METHODS AND COMPOSITIONS FOR NERVE REGENERATION” (Oregon Health & Science University, priority 2004, published 2010).
# Legend:
# [1] = system: SH-SY5Y human neuroblastoma cells; experiment: Neurite elongation (neurite outgrowth length) assay in SH-SY5Y cells in the presence of NGF; format: cell-based; conditions: for Process elongation in micrographs (FIGS. 3-10): SH-SY5Y cells at 168 hours, with NGF; for Activity in the neurite elongation assay (FIG. 17): tested at 1 μm, in the presence of NGF
# Experimental: SH-SY5Y human neuroblastoma cells were maintained in DMEM medium (GIBCO) supplemented with 10% fetal calf serum (SIGMA), 50 IU/mL penicillin, and […] streptomycin (GIBCO) at 37° C. in 7% CO2. Cells were plated in six-well plates at 1×10^6 cells/well and treated with […] aphidicolin (SIGMA). At five days, cells were washed, treated with nerve growth factor (NGF) (Boehringer Mannheim, Indianapolis, Ind.) at 10 ng/mL (to induce process outgrowth) in the presence or absence of the Centella asiatica extract and extract fractions (100 μg/mL). […] All experiments were run in duplicate wells and repeated at least twice for reproducibility.
# Neurite lengths were measured on photographic prints using a SummaSketch III digitizing tablet connected with Bioquant Classic 95 software (R&M Biometrics, Nashville, Term.); only those processes greater than two times the cell body length were measured. […] Histograms were compared using a Mann-Whitney U test, which makes no assumptions about the shape of the distribution.
# [2] = system: SHSY5Y neuroblastoma cells; experiment: Protection against hydrogen peroxide induced toxicity (CellTiter Blue / LDH); format: cell-based, human; conditions: positive control, concentration not given; H2O2 125 to 500 μM
# Experimental: SHSY5Y neuroblastoma cells were grown in DMEM/F12 medium (from Gibco) containing 10% fetal calf serum (FCS), 100 ug/ml streptomycin sulphate, 100 U/ml penicillin G in a humidified air/5% CO2 chamber at 37 C. The following method was followed: Day1. Plate SHSY5Y cells on 24-well plate at 100,000/well Day4. Remove old medium, add fresh medium with 10 ng/ml NGF. Day5. Add GK, GKW or EGCG (epigallocatechin gallate; a known antioxidant), overnight. Day6. Remove old medium (containing test substances), add fresh medium (2% FCS) with 10 ng/ml NGF. Treat cells with or without H2O2, for 2-3 hours. Remove medium and H2O2, wash 1× with fresh medium with NGF, add fresh medium (2% FCS) with NGF again, incubate overnight. Day7. Harvest supernatant for LDH assay. Add fresh medium and CellTiter Blue reagent (from Promega, containing resazurin) into each well, incubate for 2 hours, read fluorescence under the Fluorometer. @ 560 nm EX/590 nm EM, cut off 590 nm.
Molecule,Process elongation in micrographs (FIGS. 3-10) [1],Activity in the neurite elongation assay (FIG. 17) [1],further results
C[C@H]1[C@H](C)CC[C@]2(C(=O)O)CC[C@]3(C)C(=CC[C@@H]4[C@@]5(C)C[C@@H](O)[C@H](O)[C@@](C)(CO)[C@@H]5CC[C@]43C)[C@H]12 [asiatic acid],markedly increased,active,"Activity of AA in the presence of the MEK inhibitor PD 098059 ([1]; FIG. 10, 168 hours): prevented; Stimulation of neurite outgrowth elongation ([1]; concentration of 104 (0.5 μg/mL)): considerable stimulation"
C[C@H]1[C@H](C)CC[C@]2(C(=O)O)CC[C@]3(C)C(=CC[C@@H]4[C@@]5(C)C[C@@H](O)[C@H](O)[C@@](C)(CO)[C@@H]5[C@H](O)C[C@]43C)[C@H]12 [madecassic acid],–,active,–
"O=C(O[C@@H]1Cc2c(O)cc(O)cc2O[C@@H]1c1cc(O)c(O)c(O)c1)c1cc(O)c(O)c(O)c1 [EGCG, epigallocatechin gallate]",–,–,Protection against H2O2 toxicity [2]: protective
madecassoside,–,not active,–
"C=CC[C@@H]1/C=C(\C)C[C@H](C)C[C@H](OC)[C@H]2O[C@@](O)(C(=O)C(=O)N3CCCC[C@H]3C(=O)O[C@H](/C(C)=C/[C@@H]3CC[C@@H](O)[C@H](OC)C3)[C@H](C)[C@@H](O)CC1=O)[C@H](C)C[C@@H]2OC [FK506, reference compound]",–,–,Neurite elongation activity in the absence of NGF ([1]; absence of NGF): no activity
"NGF: nerve growth factor (Boehringer Mannheim), 10 ng/mL, used to induce process outgrowth (protein, UniProt P01139 122-241, looked up, Beta-nerve growth factor, nerve growth factor (Boehringer Mannheim), 10 ng/mL, used to induce process outgrowth) Beta-nerve growth factor: SSTHPVFHMGEFSVCDSVSVWVGDKTTATDIKGKEVTVLAEVNINNSVFRQYFFETKCRASNPVESGCRGIDSKHWNSYCTTTHTFVKALTTDEKQAAWRFIRIDTACVCVLSRKATRRG",demonstrate process elongation,–,"Mean neurite length (μm) at 168 h ([1]; test substance 100 μg/mL, in the presence of NGF (10 ng/mL), 168 h): 115 μm"
